The MIC is the lowest concentration that inhibits growth of the organism. What is called IC50 is the midpoint of a concentration-inhibition curve.

These results are taken from ChEMBL document CHEMBL1799950, “Antituberculosis cycloartane triterpenoids from Radermachera boniana” (J Nat Prod, 2011).

≈ marks a conversion by molar mass, not a printed value.

The first data set relates to Vero. The data set can be described thus: Cytotoxicity against african green monkey Vero cells at 200 uM after 72 hrs by MTS assay. It is filed as cell-based. Particulars: chlorocebus sabaeus. In general terms: Tetrazolium dyes change colour on reduction, which living cells bring about.
Take `CC(C)[C@@H](C)/C=C/[C@@H](C)[C@H]1CC[C@@H]2[C@]1(C)CC[C@H]1[C@]23C=C[C@]2(C[C@@H](O)CC[C@]12C)OO3` [ERGOSTEROL PEROXIDE]: the Activity result is recorded as “Non-toxic”.

In another data set the test system is Mycobacterium tuberculosis. Description: Antitubercular activity against Mycobacterium tuberculosis H37Rv ATCC 27294 after 7 days by microplate alamar blue assay. It counts as functional. As to conditions: H37Rv ATCC 27294, 168 h. On the technique in general: Resazurin is reduced to fluorescent resorufin, in cell work by metabolically active cells.
Regarding `CC(=O)O[C@H]1CC[C@]2(C)[C@H]3CC=C4[C@H]5[C@](C(=O)O)(CC[C@@H](C)[C@@]5(C)O)CC[C@@]4(C)[C@]3(C)C[C@@H](O)[C@H]2C1(C)C`, the MIC was found to be 75.5 µM (≈ 40.1 µg/mL). As for `CC(=O)O[C@@H]1CC[C@@]2(C)[C@@H](CC[C@]3(C)[C@@H]2CC=C2[C@@H]4CC(C)(C)CC[C@]4(C)CC[C@]23C)[C@@]1(C)C(=O)O`, it took 94.8 µM (≈ 47.3 µg/mL) to inhibit growth (MIC). The same measure, in the same setting: the same measure for `CC1(C)CC[C@]2(C(=O)O)CC[C@]3(C)C(=CC[C@@H]4[C@@]5(C)CC[C@@H](O)C(C)(C)[C@@H]5CC[C@]43C)[C@@H]2C1`: over 200 µM; for `CC[C@H](CC[C@@H](C)[C@H]1CC[C@H]2[C@@H]3CC=C4CC(=O)CC[C@]4(C)[C@H]3CC[C@]12C)C(C)C` [BETA-SITOSTENONE]: 39.5 µM (≈ 16.3 µg/mL). For `CC(=O)O[C@H]1CC[C@]23C[C@]24CC[C@]2(C)[C@@H]([C@H](C)CCC=C(C)C)CC[C@@]2(C)[C@@H]4CC[C@H]3[C@]1(C)C(=O)O` [BONIANIC ACID A], inhibition of growth (MIC) required 34.8 µM (≈ 17.4 µg/mL). Same read-out and setting: the same measure for `CC(=O)O[C@H]1CC[C@]23C[C@]24CC[C@]2(C)[C@@H]([C@H](C)CCC(=O)C(C)C)CC[C@@]2(C)[C@@H]4CC[C@H]3[C@]1(C)C(=O)O` [BONIANIC ACID B]: 9.9 µM (≈ 5.1 µg/mL); for `CC(C)[C@@H](C)/C=C/[C@@H](C)[C@H]1CC[C@@H]2[C@]1(C)CC[C@H]1[C@]23C=C[C@]2(C[C@@H](O)CC[C@]12C)OO3` [ERGOSTEROL PEROXIDE]: 3.5 µM (≈ 1.5 µg/mL); for `CC1(C)CC[C@]2(C(=O)O)CC[C@]3(C)C(=CC[C@@H]4[C@@]5(C)CC[C@H](O)C(C)(C)[C@@H]5CC[C@]43C)[C@@H]2C1` [OLEANOLIC_ACID]: 96.5 µM (≈ 44.1 µg/mL).

For `CO[C@H]1/C=C/O[C@@]2(C)Oc3c(C)c(O)c4c(O)c(c(/C=N/N5CCN(C)CC5)c(O)c4c3C2=O)NC(=O)/C(C)=C\C=C\[C@H](C)[C@H](O)[C@@H](C)[C@@H](O)[C@@H](C)[C@H](OC(C)=O)[C@@H]1C` [RIFAMPIN], the MIC stood at 0.14 µM (≈ 0.115 µg/mL). On the same count and under the same terms, the result for `C[C@H]1[C@H](C)CC[C@]2(C(=O)O)CC[C@]3(C)C(=CC[C@@H]4[C@@]5(C)CC[C@H](O)C(C)(C)[C@@H]5CC[C@]43C)[C@H]12` [URSOLIC ACID] reads 94.8 µM (≈ 43.3 µg/mL).

A further data set concerns Vero. Description: Cytotoxicity against african green monkey Vero cells after 72 hrs by MTS assay. Particulars: Chlorocebus sabaeus. It is filed as cell-based.
Consider `CC(=O)O[C@H]1CC[C@]23C[C@]24CC[C@]2(C)[C@@H]([C@H](C)CCC(=O)C(C)C)CC[C@@]2(C)[C@@H]4CC[C@H]3[C@]1(C)C(=O)O` [BONIANIC ACID B], for which inhibition was half-maximal at 74.2 µM (IC50).
